Consider four compounds from article PMC9151520 (Archives of Toxicology, 2022).

Like-named read-outs stand apart in the source and are kept apart here.

Test [1] relates to p53 signaling (p53RE-bla HCT-116 cells). As to the kind of experiment: cells. The format is cell-based.
The test system is the same in test [2].
The test system is the same in test [3]. This is another data set of the same source.

Turning to `Nc1cc(Cl)ccc1O` [2-Amino-4-chlorophenol], in test [1], the “EC50, p53 activation, cherry pick confirmation” value was “inactive” and the “Efficacy, p53 activation, cherry pick confirmation” value was “inactive”. Besides, the EC50 in test [1] (Homo sapiens, HCT-116, read-out: EC50, p53 activation, primary screening) turned out to be 38200 nM. Also, the Emax in test [1] (Homo sapiens, HCT-116, read-out: Efficacy, p53 activation, primary screening) was 53.8%. In test [2], the “EC50, p53 activation, cherry pick confirmation” value was “inactive”; the “EC50, p53 activation, primary screening” value is “inactive”; the “Efficacy, p53 activation, cherry pick confirmation” value was “inactive”; the “Efficacy, p53 activation, primary screening” value was “inactive”. In the test with p53RE-bla HCT-116 cells, the “EC50, viability, cherry pick confirmation” value was “inactive”; the “EC50, viability, primary screening” value was “inactive”; the “Efficacy, viability, cherry pick confirmation” value is “inactive”; the “Efficacy, viability, primary screening” value was “inactive”. Also, in test [3], the “EC50, p53 activation, cherry pick confirmation” value is “inactive”; the “EC50, p53 activation, primary screening” value is “inactive”; the “Efficacy, p53 activation, cherry pick confirmation” value was “inactive”; the “Efficacy, p53 activation, primary screening” value was “inactive”.
Consider `Nc1cnn([C@@H]2O[C@H](CO)[C@@H](O)[C@H]2O)c(=O)n1` [6-Azacytidine], for which, in test [1], the “Efficacy, p53 activation, cherry pick confirmation” value was found to be 68.68 and the “Efficacy, p53 activation, primary screening” value is on record as 56.623. In addition, the EC50 in test [1] (read-out: EC50, p53 activation, cherry pick confirmation) was 1100 nM. Besides, the EC50 in test [1] (read-out: EC50, p53 activation, primary screening) is 807 nM. Moreover, in test [2], the “EC50, p53 activation, cherry pick confirmation” value was “inactive”; the “EC50, p53 activation, primary screening” value was “inactive”; the “Efficacy, p53 activation, cherry pick confirmation” value is “inactive”; the “Efficacy, p53 activation, primary screening” value was “inactive”. Besides, in the test with p53RE-bla HCT-116 cells, the “EC50, viability, cherry pick confirmation” value was “inactive”; the “EC50, viability, primary screening” value is “inactive”; the “Efficacy, viability, cherry pick confirmation” value was “inactive”; the “Efficacy, viability, primary screening” value was “inactive”. In addition, in test [3], the “EC50, p53 activation, cherry pick confirmation” value is “inactive”; the “EC50, p53 activation, primary screening” value was “inactive”; the “Efficacy, p53 activation, cherry pick confirmation” value was “inactive”; the “Efficacy, p53 activation, primary screening” value is “inactive”.
Turning to `CCCSP(=S)(OCC)Oc1ccc(SC)cc1` (stereo not shown) [Sulprofos], in test [1], the “p53 activation EC50, cherry pick confirmation” value was “inactive”; the “p53 activation EC50, primary screening” value is “inactive”; the “p53 activation efficacy, cherry pick confirmation” value was “inactive”; the “p53 activation efficacy, primary screening” value was “inactive”. Besides, the “p53 activation EC50, cherry pick confirmation” value in test [2] is “inactive”. In the test with p53RE-bla HCT-116 cells, the “Viability EC50, cherry pick confirmation” value is “inactive”; the “Viability EC50, primary screening” value is “inactive”; the “Viability efficacy, cherry pick confirmation” value is “inactive”; the “Viability efficacy, primary screening” value is “inactive”. In addition, in test [3] (read-out: p53 activation EC50, cherry pick confirmation), the EC50 was found to be 6950 nM.
Take `Nc1nc(Cl)nc2c1ncn2[C@@H]1O[C@H](CO)[C@@H](O)[C@@H]1F` [Clofarabine]: the EC50 in test [1] (Homo sapiens, HCT-116, read-out: p53 activation EC50, cherry pick confirmation) is 335 nM. In test [1] (Homo sapiens, HCT-116, read-out: p53 activation EC50, primary screening), the concentration giving a half-maximal response (EC50) was found to be 138 nM. Also, the Emax in test [1] (Homo sapiens, HCT-116, read-out: p53 activation efficacy, cherry pick confirmation) is 84.9%. In test [1] (Homo sapiens, HCT-116, read-out: p53 activation efficacy, primary screening), the Emax was determined as 93.3%. In addition, in test [2], the “p53 activation EC50, cherry pick confirmation” value was “inactive”; the “p53 activation EC50, primary screening” value is “inactive”; the “p53 activation efficacy, cherry pick confirmation” value was “inactive”; the “p53 activation efficacy, primary screening” value is “inactive”. In addition, in the test with p53RE-bla HCT-116 cells, the “Viability EC50, cherry pick confirmation” value is “inactive”; the “Viability EC50, primary screening” value was “inactive”; the “Viability efficacy, cherry pick confirmation” value was “inactive”; the “Viability efficacy, primary screening” value is “inactive”. In addition, in test [3], the “p53 activation EC50, cherry pick confirmation” value is “inactive”; the “p53 activation EC50, primary screening” value was “inactive”; the “p53 activation efficacy, cherry pick confirmation” value was “inactive”; the “p53 activation efficacy, primary screening” value is “inactive”.

What is called EC50 is the concentration at which the effect is half-maximal.
